Assay results from patent publication US20180362935A1, “A renal cell line with stable transporter expression” (Stichting Katholieke Universiteit, priority 2015, published 2018).
Several values for one entry are separate records, joined by “and”; a condition that tells them apart may be missing. Equal values may be shown once. Read-outs that look alike come from different tables or passages of the source.

Tests used:
CHO-OAT1 = target: T1, CHO-OAT1 (Homo sapiens, UniProt Q4U2R8); details: read-out: KI (literature), cited from earlier work
T1 construct: host or cells: CHO
T1 sequence (Q4U2R8 1-563): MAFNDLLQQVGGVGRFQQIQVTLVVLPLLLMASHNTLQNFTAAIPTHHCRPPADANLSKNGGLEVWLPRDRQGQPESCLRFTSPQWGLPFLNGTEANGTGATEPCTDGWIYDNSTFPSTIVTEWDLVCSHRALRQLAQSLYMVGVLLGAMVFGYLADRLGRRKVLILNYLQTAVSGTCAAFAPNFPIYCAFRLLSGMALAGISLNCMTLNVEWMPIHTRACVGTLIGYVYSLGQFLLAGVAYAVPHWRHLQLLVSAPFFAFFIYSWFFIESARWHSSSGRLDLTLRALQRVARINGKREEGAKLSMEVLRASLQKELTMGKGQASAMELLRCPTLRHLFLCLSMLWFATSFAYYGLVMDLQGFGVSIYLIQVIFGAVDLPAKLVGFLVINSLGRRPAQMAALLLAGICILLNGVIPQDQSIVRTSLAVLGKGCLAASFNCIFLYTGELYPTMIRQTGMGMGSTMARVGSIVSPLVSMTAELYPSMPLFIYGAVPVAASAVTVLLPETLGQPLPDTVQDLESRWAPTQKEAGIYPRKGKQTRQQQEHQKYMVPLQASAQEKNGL

HeLa-OAT1 = target: T2, HeLa-OAT1 (Homo sapiens, UniProt Q4U2R8); details: substrate PAH, HeLa-OAT1, Ref. 29; read-out: IC50 (literature); cited from earlier work
T2 construct: host or cells: HeLa
T2 sequence (Q4U2R8 1-563): T1 sequence (Q4U2R8 1-563)

OAT1 [1] = target: T3, OAT1 (Homo sapiens, UniProt Q4U2R8)
T3 sequence (Q4U2R8 1-550 isoform Q4U2R8-2): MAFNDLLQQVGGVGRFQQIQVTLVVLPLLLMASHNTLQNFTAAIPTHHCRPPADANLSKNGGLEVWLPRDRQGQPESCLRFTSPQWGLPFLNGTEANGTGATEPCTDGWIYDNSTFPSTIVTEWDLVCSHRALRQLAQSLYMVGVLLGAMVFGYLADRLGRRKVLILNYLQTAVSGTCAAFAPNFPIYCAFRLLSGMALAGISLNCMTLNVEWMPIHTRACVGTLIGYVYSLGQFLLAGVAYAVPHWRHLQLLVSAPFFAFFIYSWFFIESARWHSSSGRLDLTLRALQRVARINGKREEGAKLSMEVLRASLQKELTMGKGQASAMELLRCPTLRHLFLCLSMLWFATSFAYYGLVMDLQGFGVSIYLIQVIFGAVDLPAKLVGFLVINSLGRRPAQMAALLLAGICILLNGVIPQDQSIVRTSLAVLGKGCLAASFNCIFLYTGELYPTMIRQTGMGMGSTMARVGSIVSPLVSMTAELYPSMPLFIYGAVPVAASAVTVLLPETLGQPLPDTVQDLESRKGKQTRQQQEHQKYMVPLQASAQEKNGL

ciPTEC-OAT1 = experiment: MTT viability assay in ciPTEC-OAT1; type: cell-based, human; details: for Cell viability (MTT) relative to no exposure: ciPTEC-OAT1, 1 mM, 48 h; for IC50: serum free medium, mean ± SEM, n ≥ 3
hOAT1-CHO and HEK-OAT1 = details: Ref 35, 37, cited from earlier work
OAT3 = target: T4, OAT3 (Homo sapiens, UniProt Q8TCC7)
T4 sequence (Q8TCC7 1-542): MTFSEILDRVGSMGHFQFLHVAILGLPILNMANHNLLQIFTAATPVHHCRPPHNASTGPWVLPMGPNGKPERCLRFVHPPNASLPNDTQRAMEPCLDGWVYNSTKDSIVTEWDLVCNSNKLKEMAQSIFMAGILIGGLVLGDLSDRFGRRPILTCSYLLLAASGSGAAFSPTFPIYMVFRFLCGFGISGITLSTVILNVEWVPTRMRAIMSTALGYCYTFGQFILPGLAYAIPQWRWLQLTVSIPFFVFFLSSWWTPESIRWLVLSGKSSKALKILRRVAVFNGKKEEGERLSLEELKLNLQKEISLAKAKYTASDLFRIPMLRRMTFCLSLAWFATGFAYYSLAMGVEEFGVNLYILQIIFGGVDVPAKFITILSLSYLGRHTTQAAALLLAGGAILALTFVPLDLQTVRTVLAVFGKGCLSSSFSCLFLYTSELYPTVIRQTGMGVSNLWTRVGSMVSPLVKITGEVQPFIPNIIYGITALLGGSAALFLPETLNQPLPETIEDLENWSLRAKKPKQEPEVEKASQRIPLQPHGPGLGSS

CHO-OAT3 = target: T5, CHO-OAT3 (Homo sapiens, UniProt Q8TCC7); details: substrate Sitagliptin, CHO-OAT3, Reference 51; read-out: IC50 (literature); cited from earlier work
T5 construct: host or cells: CHO
T5 sequence (Q8TCC7 1-542): T4 sequence (Q8TCC7 1-542)

Xenopus-OAT3 = target: T6, Xenopus-OAT3 (Homo sapiens, UniProt Q8TCC7); details: substrate estrone sulfate, Xenopus-OAT3, References 50, 53; read-out: IC50 (literature); cited from earlier work
T6 construct: host or cells: Xenopus oocytes
T6 sequence (Q8TCC7 1-542): T4 sequence (Q8TCC7 1-542)

OCT2 = OCT2 (Homo sapiens, UniProt O15244); details: ASP+ 1 μM, 60 min, HBSS, 37° C.; similar IC50 in ciPTEC parent, ciPTEC-OAT1 and ciPTEC-OAT3 (p>0.05)
ciPTEC-OAT3 = experiment: MTT viability assay in ciPTEC-OAT3
Method: (§1) Briefly, monolayers of ciPTEC (96-wells) were exposed to antivirals in serum-free medium (SFM) on day 6 of maturation. Cell toxicity was analyzed further in presence of multidrug resistance protein (MRP) efflux inhibitor MK571 (5 μM) and breast cancer resistance protein (BCRP) efflux inhibitor KO143 (10 μM). After incubation for 24, 48 and 72 h at 37° C., ciPTEC were washed and incubated with 0.5 mg/ml thiazolyl blue tetrazolium bromide (MTT, Sigma) for 3 h at 37° C. in absence of antivirals. Formazan crystals formed in viable cells were dissolved in dimethyl sulfoxide (DMSO, Merck, Whitehouse Station, USA) and optical density was measured (560 nm, background at 670 nm was subtracted) using Benchmark Plus (Bio-Rad, Hercules, USA).
(§2) Non-linear regression with variable slope constraining the top to 100% was used to fit the data after background subtraction with GraphPad Prism. Statistics was performed by two-way ANOVA (two-tailed, α=0.05) using GraphPad Prism as well. All data is presented as mean±SEM of at least three separate experiments (n=3) performed in triplicate, unless stated otherwise.

[2] = Varma et al., 2009; cited from earlier work
ciPTEC parent = experiment: MTT viability assay in ciPTEC parent; type: cell-based, human; details: 10×Cmax (50 μM), with MRP4 inhibitor MK571 and BCRP inhibitor KO143
Method: as §1, §2

OAT1 [3] = experiment: OAT1 gene expression in ciPTEC-OAT1 with or without EGF (quantitative PCR); type: cell-based, human; details: ciPTEC-OAT1, EGF 10 ng/mL, 48 hours
Method: ciPTEC-OAT1. 4B2 DSM ACC3279 was cultured in phenol red-free DMEM/F12 (Invitrogen, Breda, The Netherlands), as described in example 1 here above. Cells were seeded at a density of 63,000 cell/cm^2, cultured for 24 hours at 33° C. and subsequently at 37° C. for 7 days. To study the effects of EGF, matured ciPTEC-OAT1 were treated for 48 hours in the presence or absence of EGF (10 ng/mL).
OAT1 gene expression profiling was performed by isolating total RNA from cells grown in six-well plates, using an RNeasy Mini kit (Qiagen, Venlo, The Netherlands), according to the manufacturers specifications. Subsequently, cDNA was synthesized using the Omniscript RT-kit (Qiagen). Subsequently, quantitative PCR was performed in a CFX96 Real-Time PCR detection system (Bio-rad, Veenendaal, The Netherlands) according to the manufacturers conditions. GAPDH was used as reference gene for normalization and relative expression levels were calculated as fold change using the 2^−ΔΔCT method. The primer-probe sets for the quantitative PCR were obtained from Applied Biosystems: GAPDH—hs99999905 ml and OAT1—hs00537914.

[4] = 120 h, read-out: Inhibitory potency on cell viability, literature 120 h
[5] = read-out: Inhibitory potency on cell viability, literature 48 h, 48 h

Chain of OCT2 (O15244 whole entry): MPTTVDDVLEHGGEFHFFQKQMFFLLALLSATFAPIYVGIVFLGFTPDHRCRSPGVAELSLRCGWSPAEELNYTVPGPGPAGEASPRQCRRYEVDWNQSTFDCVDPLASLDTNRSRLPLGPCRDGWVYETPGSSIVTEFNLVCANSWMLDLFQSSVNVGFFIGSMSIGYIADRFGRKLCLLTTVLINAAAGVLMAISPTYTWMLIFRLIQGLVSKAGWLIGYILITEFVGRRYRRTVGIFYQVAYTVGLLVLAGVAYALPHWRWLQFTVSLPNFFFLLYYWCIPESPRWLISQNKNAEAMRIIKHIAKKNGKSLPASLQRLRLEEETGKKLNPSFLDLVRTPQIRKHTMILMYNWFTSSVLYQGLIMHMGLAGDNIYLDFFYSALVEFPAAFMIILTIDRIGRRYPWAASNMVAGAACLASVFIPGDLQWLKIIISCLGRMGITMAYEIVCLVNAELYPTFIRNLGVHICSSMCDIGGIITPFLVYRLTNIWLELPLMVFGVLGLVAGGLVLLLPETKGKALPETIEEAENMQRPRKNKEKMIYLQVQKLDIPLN

In the case of `Nc1ncnc2c1ncn2CCOCP(=O)(O)O` [Adefovir], the Ki (CHO-OAT1; CHO-OAT1, substrate not given) is listed as 23.8 µM, the IC50 (HeLa-OAT1) is listed as 8.1 µM and the IC50 (OAT1 [1]) is listed as 23 ± 4 µM. The “Cell viability (MTT) relative to no exposure” value (ciPTEC-OAT1) was “significantly affected”, the IC50 (hOAT1-CHO and HEK-OAT1; [4]) was 1.4 ± 0.7 µM and the IC50 (hOAT1-CHO and HEK-OAT1; [5]) was 0.22 ± 0.08 µM.

For `Nc1ccn(C[C@@H](CO)OCP(=O)(O)O)c(=O)n1` [Cidofovir], the IC50 (OAT1 [1]) is listed as 71 ± 34 µM, the IC50 (hOAT1-CHO and HEK-OAT1; [4]) is listed as 3 ± 1 µM and the IC50 (hOAT1-CHO and HEK-OAT1; [5]) is listed as 0.5 ± 0.2 µM.

For `CN/C(=N/CCSCc1nc[nH]c1C)NC#N` [Cimetidine], the IC50 (OAT3) is given as 215 ± 162 µM, the IC50 (CHO-OAT3) is given as 79 µM and the IC50 (OAT1 [1]) is given as 654 ± 291 µM. The IC50 (Xenopus-OAT3) was 53 µM and the “Inhibition of ASP+ uptake at OCT2” value (OCT2) was “significant inhibition”.

In the case of `C[C@H](Cn1cnc2c(N)ncnc21)OCP(=O)(O)O` [Tenofovir], the Ki (CHO-OAT1; Ref. 35, substrate and cell line not given) is listed as 33.8 µM, the IC50 (HeLa-OAT1) is listed as 29.3 µM and the “DDI index Cmax/IC50” value (OAT1 [1]) is listed as 0.014 and 0.019. The IC50 (OAT1 [1]) was 42 ± 8 µM, the “Cell viability (MTT) relative to no exposure” value (ciPTEC-OAT1) was “significantly affected” and the IC50 (ciPTEC-OAT1; ciPTEC-OAT1, 24 h exposure, read-out: Inhibitory potency on cell viability (MTT), 24 h) was 114 ± 25 µM. For the same compound, the IC50 (ciPTEC-OAT1; ciPTEC-OAT1, 72 h exposure, read-out: Inhibitory potency on cell viability (MTT), 72 h) was 223 ± 67 µM, the IC50 (ciPTEC-OAT1; read-out: Inhibitory potency on cell viability (MTT), 48 h, ciPTEC-OAT1, 48 h exposure) was 189 ± 48 µM and the IC50 (hOAT1-CHO and HEK-OAT1; [4]) was 21 ± 7 µM. The IC50 (hOAT1-CHO and HEK-OAT1; [5]) was 10 ± 2 µM and the “Cell viability (MTT) relative to no exposure” value (ciPTEC-OAT3; ciPTEC-OAT3, 1 mM, 48 h) was “slightly decreased”.

For `Cc1cn([C@H]2C[C@H](N=[N+]=[N-])[C@@H](CO)O2)c(=O)[nH]c1=O` [Zidovudine], the “Fraction eliminated via the urine without metabolic alterations” value [2] is given as 23%, the “Cell viability with efflux inhibitors” value (ciPTEC-OAT1; ciPTEC-OAT1, 10×Cmax (50 μM), with MK571 and KO143) is given as “did not affect cell viability” and the “Cell viability as determined by the MTT assay” value (ciPTEC-OAT1; ciPTEC-OAT1 and ciPTEC-OAT3, exposure for 24-72 h) is given as “did not affect cell viability”. The “Cell viability with efflux inhibitors” value (ciPTEC-OAT3; ciPTEC-OAT3, 10×Cmax (50 μM), with MK571 and KO143) was “did not affect cell viability” and the “Cell viability with efflux inhibitors” value (ciPTEC parent) was “did not affect cell viability”.

`O=C1OC2(c3ccc(O)cc3Oc3cc(O)ccc32)c2ccccc21` [fluorescein] showed a Km (OAT3) of 3.7 ± 0.5 µM and a Km (OAT1 [1]) of 0.8 ± 0.1 µM.

In the case of `Nc1ccc(C(=O)NCC(=O)O)cc1` [para-aminohippuric acid], the IC50 (OAT3) is reported as 152 ± 3 µM.

For “EGF: Epidermal growth factor (NSDSECPLSHDGYCLHDGVCMYIEALDKYACNCVVGYIGERCQYRDLKWWELR; Epidermal growth factor; UniProt P01133 971-1023, looked up)”, the OAT1 gene expression (OAT1 [3]) was “significantly increased”.

In the case of estrone sulfate, the IC50 (OAT3) is given as 2.1 ± 0.3 µM and the IC50 (Xenopus-OAT3) is given as 3 µM.
